In patent US20180028982A1, “CONTAINER WITH BIOFILM FORMATION-INHIBITING MICROORGANISMS IMMOBILIZED THEREIN AND MEMBRANE WATER TREATMENT APPARATUS USING THE SAME” (SNU R&DB FOUNDATION, priority 2010, published 2018):

Test system: AI-2 quorum sensing mechanism
Experiment: Inhibition of AI-2 quorum sensing, bioluminescence of Vibrio harveyi BB170 after reaction with Vibrio harveyi BB152 samples
Format: cell-based
Conditions: farnesol 800 μM on Vibrio harveyi BB152, reaction for 90 minutes, versus no farnesol (Control)
From the text: The effect of inhibition of quorum sensing for certain microorganisms (bacteria) for water treatment by farnesol secreted by the biofilm formation-inhibiting microorganisms, i.e., Candida albicans is thought to be attributed to the inhibition of quorum sensing mechanism using AI-2 signal molecules, which was indirectly assessed by means of Vibrio harveyi BB152, a bacteria producing only AI-2, and Vibrio harveyi BB170, bacteria allowing bioluminescence by specifically accepting only AI-2. Particularly, Vibrio harveyi BB152 producing only AI-2 signal molecules was inoculated in an AB medium (Autoinducer Bioassay medium, Tega et al., 2011) and cultivated to a certain degree of optical density (O.D.600) of 0.1-0.3. Farnesol was injected to attain final concentration of 800 μM (and no farnesol was injected for its comparison), each sample was taken after reaction for 90 minutes, and the each sample was reacted with Vibrio harveyi BB170 to measure bioluminescence. As a result, the bioluminescence of Vibrio harveyi BB170 was decreased by about 42 percents for the case of […] (designated as “Control”) when compared to the case of injecting the farnesol (see FIG. 18).

Compound: CC(C)=CCCC(C)=CCCC(C)=CCO [Farnesol, farnesol]
- decrease of bioluminescence of Vibrio harveyi BB170: about 42 percents
